Patent US10118935B2, “Melampomagnolide B dimers” (priority 2014, dated 2018)

How the values were obtained:
HL-60(TB) = conditions: for CC50: read-out: LC50
CCRF-CEM = assay: NCI 60 cell line five dose, Leukemia
MOLT-4 = assay: NCI 60 cell line five dose, Leukemia
RPMI-8226 = assay: NCI 60 cell line five dose, Leukemia
LOX IMVI = assay: NCI 60 cell line five dose, Melanoma
M14 = assay: NCI 60 cell line five dose, Melanoma
SK-MEL-28 = assay: NCI 60 cell line five dose, Melanoma; conditions: SK-MEL-28
SF-295 = assay: NCI 60 cell line five dose, CNS Cancer
SNB-75 = assay: NCI 60 cell line five dose, CNS Cancer
HCC-2998 = assay: NCI 60 cell line five dose, Colon Cancer
SW-620 = assay: NCI 60 cell line five dose, Colon Cancer
786-0 = assay: NCI 60 cell line five dose, Renal Cancer
A498 = assay: NCI 60 cell line five dose, Renal Cancer
RXF 393 = assay: NCI 60 cell line five dose, Renal Cancer
SN12C = assay: NCI 60 cell line five dose, Renal Cancer
MDA-MB-231/ATCC = assay: NCI 60 cell line five dose, Breast Cancer
BT-549 = assay: NCI 60 cell line five dose, Breast Cancer
OVCAR-5 = assay: NCI 60 cell line five dose, Ovarian Cancer
NCI/ADR-RES = assay: NCI 60 cell line five dose, Ovarian Cancer; conditions: NCI/ADR-RES
SK-OV-3 = assay: NCI 60 cell line five dose, Ovarian Cancer
DU-145 = assay: NCI 60 cell line five dose, Prostate Cancer
NCI-H23 = assay: NCI 60 cell line five dose, Non-Small Cell Lung Cancer
NCI-H522 = assay: as above

`C=C1C(=O)O[C@H]2[C@H]1CC/C(COC(=O)NCCCCCNC(=O)OC/C1=C/CC[C@@]3(C)O[C@H]3[C@H]3OC(=O)C(=C)[C@@H]3CC1)=C\CC[C@@]1(C)O[C@@H]21` [JVM 2-76, bis(((1aR,7aS,10aS,10bS,E)-1a-Methyl-8-methylene-9-oxo-1a,2,3,6,7,7a,8,9,10a,10b-decahydrooxireno[2′,3′:9,10]cyclodeca[1,2-b]furan-5-yl)methyl)pentane-1,5-diyldicarbamate] was tested, and the GI50 (HL-60(TB)) was 310 nM, the TGI (HL-60(TB)) was 1710 nM and the CC50 (HL-60(TB)) was over 100000 nM. The CC50 (M9ENL AML cell lines; read-out: LC50, M9ENL AML cell lines, after 24 hours of drug exposure) was 1350 nM, the GI50 (CCRF-CEM) was 280 nM and the TGI (CCRF-CEM) was 960 nM. For the same compound, the CC50 (CCRF-CEM; read-out: LC50) was over 100000 nM, the GI50 (MOLT-4) was 1480 nM and the TGI (MOLT-4) was 9290 nM. For the same compound, the CC50 (MOLT-4; read-out: LC50) was over 100000 nM, the GI50 (RPMI-8226) was 780 nM and the TGI (RPMI-8226) was 4160 nM. It also gave a CC50 (RPMI-8226; read-out: LC50) of over 100000 nM, a GI50 (LOX IMVI) of 460 nM and a TGI (LOX IMVI) of 1850 nM. It also gave a CC50 (LOX IMVI; read-out: LC50) of 5820 nM, a GI50 (M14) of 1710 nM and a TGI (M14) of 3740 nM. For the same compound, the CC50 (M14; read-out: LC50) was 8200 nM, the GI50 (SK-MEL-28) was 1580 nM and the TGI (SK-MEL-28) was 4130 nM. It also gave a CC50 (SK-MEL-28; read-out: LC50) of 12600 nM, a GI50 (SF-295) of 11100 nM and a TGI (SF-295) of 26900 nM. For the same compound, the CC50 (SF-295; read-out: LC50) was 65200 nM, the GI50 (SNB-75) was 2200 nM and the TGI (SNB-75) was 11400 nM. For the same compound, the CC50 (SNB-75; read-out: LC50) was 33800 nM, the GI50 (HCC-2998) was 6710 nM and the TGI (HCC-2998) was 20700 nM. It also gave a CC50 (HCC-2998; read-out: LC50) of 53900 nM, a GI50 (SW-620) of 430 nM and a TGI (SW-620) of 1750 nM. The CC50 (SW-620; read-out: LC50) was 5140 nM, the GI50 (786-0) was 1570 nM and the TGI (786-0) was 3170 nM. For the same compound, the CC50 (786-0; read-out: LC50) was 6390 nM, the GI50 (A498) was 6240 nM and the TGI (A498) was 19400 nM. The CC50 (A498; read-out: LC50) was 47500 nM, the GI50 (RXF 393) was 850 nM and the TGI (RXF 393) was 2430 nM. It also gave a CC50 (RXF 393; read-out: LC50) of 6350 nM, a GI50 (SN12C) of 2490 nM and a TGI (SN12C) of 10700 nM. It also gave a CC50 (SN12C; read-out: LC50) of 45500 nM, a GI50 (MDA-MB-231/ATCC) of 1470 nM and a TGI (MDA-MB-231/ATCC) of 3070 nM. The CC50 (MDA-MB-231/ATCC; read-out: LC50) was 6400 nM, the GI50 (BT-549) was 1000 nM and the TGI (BT-549) was 2230 nM. It also gave a CC50 (BT-549; read-out: LC50) of 4960 nM, a GI50 (OVCAR-5) of 1670 nM and a TGI (OVCAR-5) of 3530 nM. The CC50 (OVCAR-5; read-out: LC50) was 7470 nM, the GI50 (NCI/ADR-RES) was 70000 nM and the TGI (NCI/ADR-RES) was over 100000 nM. The CC50 (NCI/ADR-RES; read-out: LC50) was over 100000 nM, the GI50 (SK-OV-3) was 5990 nM and the TGI (SK-OV-3) was 19700 nM. The CC50 (SK-OV-3; read-out: LC50) was 49900 nM, the GI50 (DU-145) was 3060 nM and the TGI (DU-145) was 9550 nM. The CC50 (DU-145; read-out: LC50) was 32600 nM, the GI50 (NCI-H23) was 2660 nM and the TGI (NCI-H23) was 7710 nM. The CC50 (NCI-H23; read-out: LC50) was 45500 nM, the GI50 (NCI-H522) was 220 nM and the TGI (NCI-H522) was 440 nM. It also gave a CC50 (NCI-H522; read-out: LC50) of 880 nM.

For `C=C1C(=O)O[C@H]2[C@H]1CC/C(COC(=O)CCC(=O)NCCCCCCCCCNC(=O)CCC(=O)OC/C1=C/CC[C@@]3(C)O[C@H]3[C@H]3OC(=O)C(=C)[C@@H]3CC1)=C\CC[C@@]1(C)O[C@@H]21` [JVM 2-92, bis(((1aR,7aS,10aS,10bS,E)-1a-Methyl-8-methylene-9-oxo-1a,2,3,6,7,7a,8,9,10a,10b-decahydrooxireno[2′,3′:9,10]cyclodeca[1,2-b]furan-5-yl)methyl)4,4′-(nonane-1,9-diylbis(azanediyl))bis (4-oxobutanoate)], the GI50 (HL-60(TB)) was 440 nM, the TGI (HL-60(TB)) was 2130 nM and the CC50 (HL-60(TB)) was over 100000 nM. The “result compared to parthenolide” value (M9ENL AML cell lines; 10 μM, M9ENL cell line, FIG. 4) was “promising result”, the GI50 (CCRF-CEM) was 280 nM and the TGI (CCRF-CEM) was 1000 nM. The GI50 (MOLT-4) was 640 nM, the TGI (MOLT-4) was 4200 nM and the GI50 (RPMI-8226) was 500 nM. For the same compound, the TGI (RPMI-8226) was 3330 nM, the GI50 (LOX IMVI) was 370 nM and the TGI (LOX IMVI) was 1360 nM. For the same compound, the GI50 (M14) was 1650 nM, the TGI (M14) was 3640 nM and the GI50 (SK-MEL-28) was 1470 nM. The TGI (SK-MEL-28) was 3030 nM, the GI50 (SF-295) was 7680 nM and the TGI (SF-295) was 21900 nM. It also gave a GI50 (SNB-75) of 1470 nM, a TGI (SNB-75) of 4350 nM and a GI50 (HCC-2998) of 2250 nM. The TGI (HCC-2998) was 4700 nM, the GI50 (SW-620) was 540 nM and the TGI (SW-620) was 2070 nM. For the same compound, the GI50 (786-0) was 1490 nM, the TGI (786-0) was 3000 nM and the GI50 (A498) was 2720 nM. For the same compound, the TGI (A498) was 8300 nM, the GI50 (RXF 393) was 1010 nM and the TGI (RXF 393) was 2500 nM. For the same compound, the GI50 (SN12C) was 2690 nM, the TGI (SN12C) was 10300 nM and the GI50 (MDA-MB-231/ATCC) was 1580 nM. It also gave a TGI (MDA-MB-231/ATCC) of 4050 nM, a GI50 (BT-549) of 660 nM and a TGI (BT-549) of 2030 nM. The GI50 (OVCAR-5) was 1700 nM, the TGI (OVCAR-5) was 3470 nM and the GI50 (NCI/ADR-RES) was 26700 nM. For the same compound, the TGI (NCI/ADR-RES) was over 100000 nM, the GI50 (SK-OV-3) was 5800 nM and the TGI (SK-OV-3) was 19200 nM. The GI50 (DU-145) was 1750 nM, the TGI (DU-145) was 3180 nM and the GI50 (NCI-H23) was 2230 nM. The TGI (NCI-H23) was 5130 nM, the GI50 (NCI-H522) was 420 nM and the TGI (NCI-H522) was 1640 nM.
